Patent US9340590B2 (priority 2011, dated 2016)
pIC50: −log10 of the molar value. Where two headings read alike, the source gives them in different places. Positions of bridges follow the written chain, without caps; N, C: chain ends. Non-standard residues stand in square brackets, D forms with d. Residues, ends and D or L forms follow the SMILES beside them. Phe(4-COOH) = N[C@@H](Cc1ccc(C(=O)O)cc1)C(=O)O; 2Pal = N[C@@H](Cc1ccccn1)C(=O)O

Experiments:
Assay in all cases: cell-based
hNav1.3 = hNav1.3 (Homo sapiens, UniProt Q9NY46); details: IonWorks Quattro, Use; read-out: IWQ Use Nav1.3
hNav1.7 = hNav1.7 (Homo sapiens, UniProt Q15858); format: cell-based; details: IonWorks Quattro, Use; read-out: IWQ Use Nav1.7
hNav1.7, sequence (Q15858 whole entry, looked up): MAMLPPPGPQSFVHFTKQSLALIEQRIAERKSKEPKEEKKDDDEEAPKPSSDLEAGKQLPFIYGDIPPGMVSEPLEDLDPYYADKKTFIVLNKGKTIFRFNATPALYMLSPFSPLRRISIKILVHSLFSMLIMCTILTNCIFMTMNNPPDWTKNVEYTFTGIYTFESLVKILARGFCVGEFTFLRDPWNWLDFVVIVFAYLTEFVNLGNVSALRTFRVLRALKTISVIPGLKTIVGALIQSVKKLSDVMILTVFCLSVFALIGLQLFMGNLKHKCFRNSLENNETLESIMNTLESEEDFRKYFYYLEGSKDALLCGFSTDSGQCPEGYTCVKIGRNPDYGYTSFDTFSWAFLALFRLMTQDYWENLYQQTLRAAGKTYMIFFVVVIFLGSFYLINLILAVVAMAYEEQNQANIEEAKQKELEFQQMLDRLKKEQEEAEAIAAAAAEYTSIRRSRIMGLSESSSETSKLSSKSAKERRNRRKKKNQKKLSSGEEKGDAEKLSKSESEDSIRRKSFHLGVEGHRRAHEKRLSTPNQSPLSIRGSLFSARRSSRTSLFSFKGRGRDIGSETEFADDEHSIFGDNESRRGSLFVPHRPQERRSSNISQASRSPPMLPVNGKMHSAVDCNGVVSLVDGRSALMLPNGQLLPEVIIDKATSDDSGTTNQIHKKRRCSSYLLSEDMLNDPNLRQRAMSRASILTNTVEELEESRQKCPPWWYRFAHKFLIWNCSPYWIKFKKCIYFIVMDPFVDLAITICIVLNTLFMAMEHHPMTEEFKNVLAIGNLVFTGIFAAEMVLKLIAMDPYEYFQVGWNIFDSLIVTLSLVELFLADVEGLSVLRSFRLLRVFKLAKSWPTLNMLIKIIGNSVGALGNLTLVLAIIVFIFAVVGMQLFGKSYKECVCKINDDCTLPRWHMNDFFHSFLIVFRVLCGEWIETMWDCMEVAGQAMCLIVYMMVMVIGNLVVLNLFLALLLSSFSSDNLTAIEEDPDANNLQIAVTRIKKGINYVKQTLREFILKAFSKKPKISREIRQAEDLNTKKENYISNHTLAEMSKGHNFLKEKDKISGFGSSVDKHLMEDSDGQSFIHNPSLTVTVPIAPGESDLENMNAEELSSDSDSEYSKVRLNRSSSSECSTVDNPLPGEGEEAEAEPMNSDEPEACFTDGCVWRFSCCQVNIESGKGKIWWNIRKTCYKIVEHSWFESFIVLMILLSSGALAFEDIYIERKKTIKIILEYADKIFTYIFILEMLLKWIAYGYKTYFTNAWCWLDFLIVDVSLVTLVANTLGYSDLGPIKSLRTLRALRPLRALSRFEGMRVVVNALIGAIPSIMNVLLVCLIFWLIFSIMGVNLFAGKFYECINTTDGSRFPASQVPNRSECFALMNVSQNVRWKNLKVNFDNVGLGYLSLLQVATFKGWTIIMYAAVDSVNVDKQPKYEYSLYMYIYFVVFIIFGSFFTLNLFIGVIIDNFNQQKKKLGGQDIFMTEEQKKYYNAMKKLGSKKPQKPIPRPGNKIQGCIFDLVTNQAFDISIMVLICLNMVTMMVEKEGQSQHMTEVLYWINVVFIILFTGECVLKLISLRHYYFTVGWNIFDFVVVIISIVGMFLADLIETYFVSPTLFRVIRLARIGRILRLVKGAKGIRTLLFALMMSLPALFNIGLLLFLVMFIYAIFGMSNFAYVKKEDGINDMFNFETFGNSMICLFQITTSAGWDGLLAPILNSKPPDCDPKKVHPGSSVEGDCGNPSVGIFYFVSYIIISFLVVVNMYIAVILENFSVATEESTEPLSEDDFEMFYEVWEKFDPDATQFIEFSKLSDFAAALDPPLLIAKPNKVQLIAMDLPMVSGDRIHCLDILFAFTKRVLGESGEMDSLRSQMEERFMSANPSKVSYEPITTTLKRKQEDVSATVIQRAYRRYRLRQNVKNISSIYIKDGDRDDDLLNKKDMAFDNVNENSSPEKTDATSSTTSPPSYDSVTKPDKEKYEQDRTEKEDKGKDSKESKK

hNav1.5 = hNav1.5 (Homo sapiens, UniProt Q14524); details: for pIC50: IonWorks Quattro, Use, read-out: IWQ Use Nav1.5
hNav1.5, sequence (Q14524 whole entry, looked up): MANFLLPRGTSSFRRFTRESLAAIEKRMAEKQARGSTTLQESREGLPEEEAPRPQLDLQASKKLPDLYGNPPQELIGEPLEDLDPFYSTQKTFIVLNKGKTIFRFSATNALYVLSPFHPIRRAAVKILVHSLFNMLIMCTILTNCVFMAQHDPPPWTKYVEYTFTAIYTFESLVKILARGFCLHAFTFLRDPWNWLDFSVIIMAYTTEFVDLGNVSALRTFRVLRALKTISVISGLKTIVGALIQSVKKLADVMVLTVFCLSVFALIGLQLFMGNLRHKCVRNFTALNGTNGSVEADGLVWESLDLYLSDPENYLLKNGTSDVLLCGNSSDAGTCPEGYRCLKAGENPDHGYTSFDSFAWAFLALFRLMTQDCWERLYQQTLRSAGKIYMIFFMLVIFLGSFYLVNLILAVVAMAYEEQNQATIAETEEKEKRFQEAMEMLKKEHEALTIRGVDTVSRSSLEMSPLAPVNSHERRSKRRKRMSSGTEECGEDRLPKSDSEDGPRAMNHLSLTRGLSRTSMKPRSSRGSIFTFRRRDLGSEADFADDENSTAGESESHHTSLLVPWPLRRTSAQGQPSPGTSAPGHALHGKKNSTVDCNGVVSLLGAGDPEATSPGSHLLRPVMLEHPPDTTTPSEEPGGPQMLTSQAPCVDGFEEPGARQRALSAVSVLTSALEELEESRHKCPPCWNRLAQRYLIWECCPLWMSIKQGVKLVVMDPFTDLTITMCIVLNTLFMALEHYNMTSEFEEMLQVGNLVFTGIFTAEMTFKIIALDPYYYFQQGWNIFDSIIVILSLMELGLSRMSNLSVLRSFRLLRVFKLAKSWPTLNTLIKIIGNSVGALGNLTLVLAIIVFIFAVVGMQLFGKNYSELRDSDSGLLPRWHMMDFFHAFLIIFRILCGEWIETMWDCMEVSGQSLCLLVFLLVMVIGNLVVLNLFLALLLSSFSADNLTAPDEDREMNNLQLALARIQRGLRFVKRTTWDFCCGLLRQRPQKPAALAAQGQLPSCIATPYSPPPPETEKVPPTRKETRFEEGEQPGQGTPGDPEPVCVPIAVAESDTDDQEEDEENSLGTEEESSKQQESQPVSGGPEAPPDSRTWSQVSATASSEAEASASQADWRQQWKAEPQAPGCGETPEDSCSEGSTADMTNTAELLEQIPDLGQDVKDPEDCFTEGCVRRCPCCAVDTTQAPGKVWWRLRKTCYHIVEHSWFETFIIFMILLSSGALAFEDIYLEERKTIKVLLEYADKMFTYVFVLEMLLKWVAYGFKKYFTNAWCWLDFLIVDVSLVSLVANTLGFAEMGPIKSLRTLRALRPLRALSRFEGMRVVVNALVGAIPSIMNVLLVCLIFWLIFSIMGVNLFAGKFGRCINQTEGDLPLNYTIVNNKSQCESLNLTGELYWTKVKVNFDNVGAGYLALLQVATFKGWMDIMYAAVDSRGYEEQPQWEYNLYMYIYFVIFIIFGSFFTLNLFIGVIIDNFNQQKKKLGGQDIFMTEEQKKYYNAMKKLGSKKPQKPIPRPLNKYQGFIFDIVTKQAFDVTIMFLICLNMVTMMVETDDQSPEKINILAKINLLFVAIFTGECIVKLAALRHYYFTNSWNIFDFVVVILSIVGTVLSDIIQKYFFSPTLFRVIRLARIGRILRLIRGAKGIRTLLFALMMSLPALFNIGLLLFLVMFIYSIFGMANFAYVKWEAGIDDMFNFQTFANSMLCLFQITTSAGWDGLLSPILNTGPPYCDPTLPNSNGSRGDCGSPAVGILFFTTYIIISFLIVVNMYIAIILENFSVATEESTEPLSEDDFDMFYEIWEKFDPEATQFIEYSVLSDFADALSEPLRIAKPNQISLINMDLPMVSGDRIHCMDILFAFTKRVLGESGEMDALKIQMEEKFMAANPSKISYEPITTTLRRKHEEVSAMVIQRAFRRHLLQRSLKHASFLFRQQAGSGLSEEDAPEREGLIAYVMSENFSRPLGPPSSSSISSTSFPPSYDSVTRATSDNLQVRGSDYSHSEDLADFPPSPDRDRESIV

SMILES	pIC50 (hNav1.3)	pIC50 (hNav1.7)	pIC50 (hNav1.5)	IC50 (hNav1.5; IWQ Use Nav1.5 (μM))
CC[C@H](C)[C@@H]1NC(=O)[C@@H]2CSSC[C@@H]3NC(=O)[C@H](C(C)C)NC(=O)[C@H](Cc4ccc(C(=O)O)cc4)NC(=O)[C@H](CC(N)=O)NC(=O)[C@@H]4CCCN4C(=O)[C@H](CCCNC(=N)N)NC(=O)[C@H](CSSC[C@H](NC(=O)[C@@H](N)CC(=O)O)C(=O)N[C@@H](CC(C)C)C(=O)NCC(=O)N[C@@H](Cc4ccccc4)C(=O)N[C@@H](CCSC)C(=O)N[C@@H](CCCNC(=N)N)C(=O)N[C@@H](CCCCN)C(=O)N2)NC(=O)[C@H](CSSC[C@@H](C(=O)N[C@@H](CCCCN)C(=O)N[C@@H](Cc2ccc(O)cc2)C(=O)N[C@H](C(=O)N[C@@H](Cc2ccccc2)C(N)=O)C(C)C)NC(=O)[C@H](Cc2c[nH]c4ccccc24)NC(=O)[C@H](CCCCN)NC(=O)[C@H](Cc2c[nH]cn2)NC(=O)[C@H]([C@@H](C)O)NC(=O)[C@H](CCCNC(=N)N)NC(=O)[C@H](CO)NC3=O)NC(=O)[C@H](CCCCN)NC(=O)[C@H](CC(=O)O)NC(=O)[C@H](CC(N)=O)NC(=O)[C@H](CC(=O)O)NC(=O)[C@@H]2CCCN2C1=O [compound 317] (H-DCLGFMRKCIPDNDKCCRPN[Phe(4-COOH)]VCSRTHKWCKYVF-NH2; disulfide 2-17, 9-23, 16-30)	5.44	5.40	5.05	
CC[C@H](C)[C@@H]1NC(=O)[C@@H]2CSSC[C@@H]3NC(=O)[C@H](C(C)C)NC(=O)[C@H](Cc4ccccn4)NC(=O)[C@H](CC(N)=O)NC(=O)[C@@H]4CCCN4C(=O)[C@H](CCCNC(=N)N)NC(=O)[C@H](CSSC[C@H](NC(=O)[C@@H](N)CC(=O)O)C(=O)N[C@@H](CC(C)C)C(=O)NCC(=O)N[C@@H](Cc4ccccc4)C(=O)N[C@@H](CCSC)C(=O)N[C@@H](CCCNC(=N)N)C(=O)N[C@@H](CCCCN)C(=O)N2)NC(=O)[C@H](CSSC[C@@H](C(=O)N[C@@H](CCCCN)C(=O)N[C@@H](Cc2ccc(O)cc2)C(=O)N[C@H](C(=O)N[C@@H](Cc2ccccc2)C(N)=O)C(C)C)NC(=O)[C@H](Cc2c[nH]c4ccccc24)NC(=O)[C@H](CCCCN)NC(=O)[C@H](Cc2c[nH]cn2)NC(=O)[C@H]([C@@H](C)O)NC(=O)[C@H](CCCNC(=N)N)NC(=O)[C@H](CO)NC3=O)NC(=O)[C@H](CCCCN)NC(=O)[C@H](CC(=O)O)NC(=O)[C@H](CC(N)=O)NC(=O)[C@H](CC(=O)O)NC(=O)[C@@H]2CCCN2C1=O [compound 318] (H-DCLGFMRKCIPDNDKCCRPN[2Pal]VCSRTHKWCKYVF-NH2; disulfide 2-17, 9-23, 16-30)	7.10	6.74	5.12	
CC[C@H](C)[C@@H]1NC(=O)[C@@H]2CSSC[C@@H]3NC(=O)[C@H](Cc4ccccc4)NC(=O)[C@H](CC(C)C)NC(=O)[C@H](CC(N)=O)NC(=O)[C@@H]4CCCN4C(=O)[C@H](CCCNC(=N)N)NC(=O)[C@H](CSSC[C@H](NC(=O)[C@@H](N)CC(=O)O)C(=O)N[C@@H](CC(C)C)C(=O)NCC(=O)N[C@@H](Cc4ccccc4)C(=O)N[C@@H](CCSC)C(=O)N[C@@H](CCCNC(=N)N)C(=O)N[C@@H](CCCCN)C(=O)N2)NC(=O)[C@H](CSSC[C@@H](C(=O)N[C@@H](CCCCN)C(=O)N[C@@H](Cc2ccc(O)cc2)C(=O)N[C@H](C(=O)N[C@@H](Cc2ccccc2)C(N)=O)C(C)C)NC(=O)[C@H](Cc2c[nH]c4ccccc24)NC(=O)[C@H](CCCCN)NC(=O)[C@H](Cc2c[nH]cn2)NC(=O)[C@H]([C@@H](C)O)NC(=O)[C@H](CCCNC(=N)N)NC(=O)[C@H](CO)NC3=O)NC(=O)[C@H](CCCCN)NC(=O)[C@H](CC(=O)O)NC(=O)[C@H](CC(N)=O)NC(=O)[C@H](CC(=O)O)NC(=O)[C@@H]2CCCN2C1=O [compound 319] (H-DCLGFMRKCIPDNDKCCRPNLFCSRTHKWCKYVF-NH2; disulfide 2-17, 9-23, 16-30)	5.99	6.15		> 5 µM
